# Experimental data reported in ChEMBL document CHEMBL1137977, “HCV NS5B polymerase-bound conformation of a soluble sulfonamide inhibitor by 2D transferred NOESY” (Bioorg Med Chem Lett, 2004).
# Biological target: RNA-directed RNA polymerase (Hepacivirus hominis, UniProt O39930)
# Assay: Inhibitory concentration for NS5B RNA-dependent RNA polymerase of Hepatitis C virus
# RNA-directed RNA polymerase, sequence (O39930 whole entry): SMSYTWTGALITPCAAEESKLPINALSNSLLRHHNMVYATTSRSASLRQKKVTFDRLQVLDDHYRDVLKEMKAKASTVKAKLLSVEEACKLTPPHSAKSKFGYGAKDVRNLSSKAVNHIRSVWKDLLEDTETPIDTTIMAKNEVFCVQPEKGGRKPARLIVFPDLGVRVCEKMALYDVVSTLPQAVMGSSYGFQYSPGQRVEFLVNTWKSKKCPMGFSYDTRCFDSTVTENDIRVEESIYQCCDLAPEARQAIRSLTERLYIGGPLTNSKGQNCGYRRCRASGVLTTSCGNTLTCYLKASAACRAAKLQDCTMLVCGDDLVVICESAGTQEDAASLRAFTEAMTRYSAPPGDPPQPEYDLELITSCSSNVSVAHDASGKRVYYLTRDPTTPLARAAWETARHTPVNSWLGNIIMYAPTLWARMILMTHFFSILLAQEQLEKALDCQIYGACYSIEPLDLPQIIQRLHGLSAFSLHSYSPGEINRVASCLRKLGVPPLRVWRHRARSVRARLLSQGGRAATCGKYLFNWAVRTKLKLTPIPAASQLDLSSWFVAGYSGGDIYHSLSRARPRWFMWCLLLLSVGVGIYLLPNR
row,SMILES,IC50
1,Cc1cc(S(=O)(=O)Nc2cc(-c3ccccc3)sc2C(=O)O)c(C)cc1Cl,5 µM
2,O=C(O)c1sc(-c2ccccc2)cc1NS(=O)(=O)c1ccccn1,25 µM
3,Cc1ccccc1S(=O)(=O)Nc1cc(-c2ccncc2)sc1C(=O)O,4 µM
4,O=C(O)c1sc(-c2ccccc2)cc1NS(=O)(=O)c1ccc(C(F)(F)F)cn1,15 µM
5,Cc1cc(S(=O)(=O)Nc2cc(-c3ccccc3)sc2C(N)=O)c(C)cc1Cl,14 µM
6,O=C(O)c1sc(-c2ccc(F)cc2)cc1NS(=O)(=O)c1ccccn1,4 µM
